Patent publication US20260325481A1, “THERAPY SELECTION AND TREATMENT OF NEURODEGENERATIVE DISORDERS” (Anavex Life Sciences Corp., priority 2022, published 2026)
Read-outs that look alike come from different tables or passages of the source.

What was measured:
Cluster 1 (213 genes) = experiment: RNAseq whole blood transcriptomics, WGCNA Cluster 1 and pathway analysis; design: species or system human
Method: In order to gain insights into ANAVEX 2-73 response pathways, during the Phase 2 study, patients' DNA and RNA sequencing were analyzed. Transcriptomic samples of 65 patients enrolled in either High Dose or Mid Dose arms were collected at baseline and at the end of treatment (Week 14). The expression of 14,150 genes was measured. No transformation was applied to the TPM values. Values associated with a with RIN s 4.0 were discarded. The actual dose of ANAVEX 2-73 (blarcamesine) that was given to each patient during the trial was assessed and integrated into the database. To characterize the gene dysregulations, a pathway database was built using an aggregation of public databases including KEGG, Panther, Allen, Brain Atlas, Gene Ontology, and Reactome.
The genes were clustered together using WGCNA, starting from their correlation of TPM expression values across samples. Seventeen clusters with size ranging from 13 to 11,190 genes were obtained through this gene clusterisation. The TPM expression values of genes in clusters were then aggregated in a single “eigengene” for each cluster. This eigengene served as a representant of the overall dysregulation of the cluster. Secondly, a cluster filtering was performed, wherein patients' arm and dose information were taken into account based on mixed effect models. For each cluster, the eigengene was used as target variable of a linear mixed effect model with 3 covariates: ActualDose, Patient, and timepoint. For each cluster, the contrast ActualDose, i.e. treated vs placebo were evaluated across all timepoints. P-values were obtained with Dunnett's test. Regardless of the cluster and pathway, pathways with less than 4 genes in a cluster were removed, to compensate for the large variability of cluster size and corresponding variability of number of pathways identified in each clusters. The ratio between cluster size and number of pathways was calculated, and top 2 clusters were retained for further Analysis. Cluster 1 contained 213 genes (n1=213) and 37 pathways, and Cluster 2 contained 962 genes (n2=962) and 317 pathways. […] Thirdly, the two retained clusters were characterized and underwent pathway analysis. The characterization and analysis were applied to all the genes of the cluster (whole cluster), and to the genes of the clusters that are known to have biological interactions (reduced cluster). In the whole cluster analysis, overrepresented pathways were identified using EnrichR package with the parameters of Fisher's adjusted p-value p<0.05 (Benjamini-Hochberg adjustment for multiple testing) and minimum pathway size 20. In the reduced cluster analysis, genes that have no interaction with any other genes of the cluster were discarded, resulting in a reduced cluster. Pathway analysis was performed on these reduced clusters. False Discovery Rate with adjustment for multiple testing (Benjamini-Hochberg procedure) was used to characterize pathways' over-representation. Known interactions between the genes of the cluster were assessed using STRING database with the parameters of Edge score >0.150, and no text mining edges. Known interactions were obtained from public databases, such as KEGG, Panther, Allen, Brain Atlas, Gene Ontology, and Reactome.
Whole Blood Transcriptomics Analysis (RNAseq) of patients with Parkinson's disease with dementia (PDD) was performed for the ANAVEX®2-73-PDD-001 study (FIG. 1) at two timepoints: Baseline and Week 14 (end of trial). All available RNA samples with […] (RNA integrity number, using 130 samples) were analyzed. The expression of 14,150 genes at these two timepoints were analyzed from both placebo and ANAVEX® 2-73 treated patients.
The above method was performed as illustrated in FIG. 2B. […] Then, the cluster's eigengene3 (one of a set of a genes matrix that tabulates the mRNA or gene expression of the genes across the sample) was used as summary of expression level of the cluster. […]

[1] = system: Sigma-1 receptor (SIGMAR1); details: cited from earlier work

CN(C)CC1CCOC1(c1ccccc1)c1ccccc1.Cl (stereo not drawn) [ANAVEX2-73, tetrahydro-N,N-dimethyl-2,2-diphenyl-3-furanmethanamine hydrochloride]
Overlap (Cluster 1 (213 genes)): 13/273
Number of pathways significantly overrepresented in first cluster (Cluster 1 (213 genes); among its 37 pathways): 10 pathways
Overlap (Cluster 1 (213 genes); genes of pathway in Cluster 1/genes in pathway, KEGG 2021, Alzheimer disease): 15/369
Overlap (Cluster 1 (213 genes); genes of pathway in Cluster 1/genes in pathway, KEGG 2021, Amyotrophic lateral sclerosis): 14/364
Overlap (Cluster 1 (213 genes); genes of pathway in Cluster 1/genes in pathway, KEGG 2021, Diabetic cardiomyopathy): 9/203
Overlap (Cluster 1 (213 genes); genes of pathway in Cluster 1/genes in pathway, KEGG 2021, Huntington disease): 13/306
Overlap (Cluster 1 (213 genes); genes of pathway in Cluster 1/genes in pathway, KEGG 2021, Non-alcoholic fatty liver disease): 8/155
Overlap (Cluster 1 (213 genes); genes of pathway in Cluster 1/genes in pathway, KEGG 2021, Oxidative phosphorylation): 8/133
Overlap (Cluster 1 (213 genes); genes of pathway in Cluster 1/genes in pathway, KEGG 2021, Parkinson disease): 12/249
Overlap (Cluster 1 (213 genes); genes of pathway in Cluster 1/genes in pathway, KEGG 2021, Pathways of neurodegeneration): 15/475
Overlap (Cluster 1 (213 genes); genes of pathway in Cluster 1/genes in pathway, KEGG 2021, Proteasome): 4/46
Sigma-1 receptor (SIGMAR1) activity [1]: agonist
